Reference: ChEMBL document CHEMBL5143521, “Identification of a selective BRD4 PROTAC with potent antiproliferative effects in AR-positive prostate cancer based on a dual BET/PLK1 inhibitor” (Eur J Med Chem, 2022)
Active and inactive are the calls of the source. The calls are words filed in the database; no cut-off is given here.

Tests used:
[1] = target: Serine/threonine-protein kinase PLK1 (Homo sapiens, UniProt P53350); assay: Inhibition of recombinant full length human PLK1 using casein as substrate incubated for 40 mins in presence of [gamma-33P]-ATP by radiometric scintillation counting method
DU-145 = assay: Antiproliferative activity against AR-negative human castration resistant DU-145 cells assessed as reduction in cell viability measured after 4 days by MTT assay; assay type: functional, cell-based; details: DU-145, 96 h
CWR22R [2] = assay: Antiproliferative activity against AR-positive human 22Rv1 cells assessed as reduction in cell viability measured after 4 days by MTT assay; assay type: functional, cell-based; details: 22Rv1, 96 h
LNCaP = assay: Downregulation of c-Myc […] expression level in AR-positive harmone sensitive human LNCaP cells at 1 nM by Western blot analysis; assay type: functional, cell-based; details: time 2-48 hrs, TDE = time-dependent effect
CWR22R [3] = assay: Downregulation of c-Myc […] expression level in AR-positive human 22Rv1 cells at 1 nM by Western blot analysis; assay type: functional, cell-based; details: time 2-48 hrs, TDE = time-dependent effect
[4] = target: T1, Protein cereblon/Bromodomain-containing protein 4 (Homo sapiens) (UniProt O60885+Q96SW2); assay: Protac activity at BRD4/CRBN in AR-positive human VCaP cells assessed as degradation of BRD4 by measuring downregulation of BRD4 expression level measured after 24 hrs by Western blot analysis; assay type: cell-based; details: dose 1-10000 nM, DDE = dose-dependent effect
[5] = target: T1, Protein cereblon/Bromodomain-containing protein 4 (Homo sapiens); assay: Protac activity at BRD4/CRBN in AR-negative human castration resistant DU-145 cells assessed as degradation of BRD4 by measuring downregulation of BRD4 expression level at 1 nM by Western blot analysis; assay type: cell-based; details: time 2-48 hrs, TDE = time-dependent effect
[6] = target: T1, Protein cereblon/Bromodomain-containing protein 4 (Homo sapiens); assay: Protac activity at BRD4/CRBN in AR-negative human castration resistant DU-145 cells assessed as degradation of BRD4 by measuring downregulation of BRD4 expression level measured after 24 hrs by Western blot analysis; assay type: cell-based; details: dose 1-10000 nM, DDE = dose-dependent effect
VCaP [7] = assay: Downregulation of AR protein expression in AR-positive human VCaP cells at 100 nM measured after 48 hrs by Western blot analysis; assay type: functional, cell-based
VCaP [8] = assay: Downregulation of TMPRSS2 gene expression in AR-positive human VCaP cells at 100 nM measured after 24 hrs by RT-qPCR analysis; assay type: functional, cell-based
CWR22R [9] = assay: Induction of cell cycle arrest in AR-positive human 22Rv1 cells assessed as downregulation of CDK6 expression at 100 to 1000 nM measured after 72 hrs by Western blot analysis; assay type: functional, cell-based; details: dose 100-1000 nM
CWR22R [10] = assay: Induction of apoptosis in AR-positive human 22Rv1 cells assessed as upregulation of cleaved caspase-3 level measured after 72 hrs by Annexin V-FITC/PI staining based flow cytometry method; assay type: functional, cell-based; details: dose 100-1000 nM, DDE = dose-dependent effect

T1 sequence (Q96SW2 whole entry, looked up, other chains not shown): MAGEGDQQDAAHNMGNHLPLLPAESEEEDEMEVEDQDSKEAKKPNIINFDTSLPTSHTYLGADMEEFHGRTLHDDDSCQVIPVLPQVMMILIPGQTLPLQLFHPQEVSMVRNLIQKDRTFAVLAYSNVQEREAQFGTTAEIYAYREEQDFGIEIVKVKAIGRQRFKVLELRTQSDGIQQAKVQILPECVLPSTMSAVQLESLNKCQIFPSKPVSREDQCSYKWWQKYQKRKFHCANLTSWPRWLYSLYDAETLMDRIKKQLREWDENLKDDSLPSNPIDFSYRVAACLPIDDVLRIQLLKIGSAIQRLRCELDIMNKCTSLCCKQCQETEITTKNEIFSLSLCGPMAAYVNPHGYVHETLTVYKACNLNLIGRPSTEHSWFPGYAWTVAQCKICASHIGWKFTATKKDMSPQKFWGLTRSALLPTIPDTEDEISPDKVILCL
Sequence of Serine/threonine-protein kinase PLK1 (P53350 whole entry): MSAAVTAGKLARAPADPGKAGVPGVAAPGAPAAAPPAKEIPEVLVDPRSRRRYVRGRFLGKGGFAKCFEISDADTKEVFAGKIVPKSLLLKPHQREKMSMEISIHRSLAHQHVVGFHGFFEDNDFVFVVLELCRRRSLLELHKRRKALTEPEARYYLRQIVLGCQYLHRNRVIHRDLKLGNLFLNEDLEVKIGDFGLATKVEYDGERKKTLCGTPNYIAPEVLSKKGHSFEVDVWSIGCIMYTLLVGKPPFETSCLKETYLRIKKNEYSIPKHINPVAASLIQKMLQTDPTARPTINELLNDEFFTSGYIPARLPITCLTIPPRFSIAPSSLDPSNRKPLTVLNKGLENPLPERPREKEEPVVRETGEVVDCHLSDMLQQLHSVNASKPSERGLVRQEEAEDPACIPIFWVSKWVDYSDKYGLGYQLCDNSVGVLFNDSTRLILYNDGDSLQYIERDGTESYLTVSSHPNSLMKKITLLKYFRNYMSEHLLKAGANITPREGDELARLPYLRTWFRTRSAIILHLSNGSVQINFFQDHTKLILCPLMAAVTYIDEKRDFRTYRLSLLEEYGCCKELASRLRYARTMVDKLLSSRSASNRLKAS

`CC[C@@H]1c2nnc(C)n2-c2cnc(Nc3ccc(C(=O)NC4CCN(C(=O)COc5cccc6c5C(=O)N(C5CCC(=O)NC5=O)C6=O)CC4)cc3OC)nc2N1CC1CCCCC1` (some centres not stated) was tested. Which IC50 [1] did it give?
The IC50 was 985 nM.

And the IC50 (DU-145)?
The IC50 was 10000 nM.

And the IC50 (CWR22R [2])?
Its IC50 is 53 nM.

What about the Activity (LNCaP) of the same compound?
The Activity was “Tde”.

What about the Activity (CWR22R [3]) of the same compound?
The Activity was “Tde”.

And the Activity [4]?
The Activity was “Dde”.

And the Activity [5]?
Its Activity is “Tde”.

And the Activity [6]?
The Activity was “Dde”.

And the Activity (VCaP [7])?
Its Activity is “Active”.

And the Activity (VCaP [8])?
Its Activity is “Active”.

And the Activity (CWR22R [9])?
The Activity was “Active”.

What about the Activity (CWR22R [10]) of the same compound?
Its Activity is “Dde”.
